Biological target: WDR5 (Homo sapiens (Human), UniProt P61964)
Test: Surface Plasmon Resonance (SPR) assay, KD and residence time
Format: binding
Details: surface plasmon resonance (SPR) assay; read-out: WDR5 binding affinity (KD)

`C[C@@H]1CN(c2cc(F)c(-c3cnc(N(C)C)c(C#N)c3)cc2NC(=O)c2c[nH]c(=O)cc2C(F)(F)F)C[C@H](C)N1C` [Example 220, N-[5-[5-cyano-6-(dimethylamino)pyridin-3-yl]-4-fluoro-2-[(3R,5S)-3,4,5-trimethylpiperazin-1-yl]phenyl]-6-oxo-4-(trifluoromethyl)-1H-pyridine-3-carboxamide] and `C[C@@H]1CN(c2cc(F)c(-c3cnc4c(c3)OCCO4)cc2NC(=O)c2c[nH]c(=O)cc2C(F)(F)F)C[C@H](C)N1C` [Example 223, N-[5-(2,3-dihydro-[1,4]dioxino[2,3-b]pyridin-7-yl)-4-fluoro-2-[(3R,5S)-3,4,5-trimethylpiperazin-1-yl]phenyl]-6-oxo-4-(trifluoromethyl)-1H-pyridine-3-carboxamide] are within 1.5-fold of each other in Kd: 2.25 nM for the first, 1.63 nM for the second.

Compared with `C[C@@H]1CN(c2cc(F)c(-c3cnc(N4CCOCC4)c(Cl)c3)cc2NC(=O)c2c[nH]c(=O)cc2C(F)(F)F)C[C@H](C)N1C` [Example 222, N-[5-(5-chloro-6-morpholin-4-ylpyridin-3-yl)-4-fluoro-2-[(3R,5S)-3,4,5-trimethylpiperazin-1-yl]phenyl]-6-oxo-4-(trifluoromethyl)-1H-pyridine-3-carboxamide], `C[C@@H]1CN(c2cc(F)c(-c3ccnc(N4CCOCC4)c3)cc2NC(=O)c2cn(C)c(=O)cc2C(F)(F)F)C[C@H](C)N1C` [Example 226, N-[4-fluoro-5-(2-morpholin-4-ylpyridin-4-yl)-2-[(3R,5S)-3,4,5-trimethylpiperazin-1-yl]phenyl]-1-methyl-6-oxo-4-(trifluoromethyl)pyridine-3-carboxamide] is 6-fold higher in Kd: 1.34 nM for the first, 7.99 nM for the second.

First: CN1CCN(c2cc(F)c(-c3cnc(N4CCOCC4)nc3)cc2NC(=O)c2c[nH]c(=O)cc2C(F)(F)F)CC1(C)C [Example 225, N-[4-fluoro-5-(2-morpholin-4-ylpyrimidin-5-yl)-2-(3,3,4-trimethylpiperazin-1-yl)phenyl]-6-oxo-4-(trifluoromethyl)-1H-pyridine-3-carboxamide]
Second: CN(C)[C@@H]1CCN(c2cc(F)c(-c3ccc(N4CCOCC4)nc3)cc2NC(=O)c2c[nH]c(=O)cc2C(F)(F)F)C1 [Example 234, N-[4-fluoro-5-(6-morpholin-4-ylpyridin-3-yl)-2-[(3R)-3-(dimethylamino)pyrrolidin-1-yl]phenyl]-6-oxo-4-(trifluoromethyl)-1H-pyridine-3-carboxamide]
The Kd of the first is 1600-fold higher: 3000 nM for the first, 1.86 nM for the second.

`C[C@@H]1CN(c2cc(F)c(-c3ccc(N4CCCC4)cc3)cc2NC(=O)c2cn(C)c(=O)cc2C(F)(F)F)C[C@H](C)N1C` [Example 227, N-[4-fluoro-5-(4-pyrrolidin-1-ylphenyl)-2-[(3R,5S)-3,4,5-trimethylpiperazin-1-yl]phenyl]-1-methyl-6-oxo-4-(trifluoromethyl)pyridine-3-carboxamide] and `C[C@@H]1CN(c2cc(F)c(-c3ccc(OCC4CC4)cc3)cc2NC(=O)c2cn(C)c(=O)cc2C(F)(F)F)C[C@H](C)N1C` [Example 228, N-[5-[4-(cyclopropylmethoxy)phenyl]-4-fluoro-2-[(3R,5S)-3,4,5-trimethylpiperazin-1-yl]phenyl]-1-methyl-6-oxo-4-(trifluoromethyl)pyridine-3-carboxamide] are within 1.5-fold of each other in Kd: 9.14 nM for the first, 7.26 nM for the second.

Going from `C[C@@H]1CN(c2cc(F)c(-c3cnc(N4CCOCC4)nc3)cc2NC(=O)c2cccc(F)c2F)C[C@H](C)N1C` [Example 229, 2,3-difluoro-N-[4-fluoro-5-(2-morpholin-4-ylpyrimidin-5-yl)-2-[(3R,5S)-3,4,5-trimethylpiperazin-1-yl]phenyl]benzamide] to `C[C@@H]1CN(c2ncc(-c3cc(NC(=O)c4cn(C)c(=O)cc4C(F)(F)F)c(N4C[C@@H](C)N(C)[C@@H](C)C4)cc3F)cn2)C[C@H](C)O1` [Example 246, N-[4-fluoro-5-[2-[(2R,6S)-2,6-dimethylmorpholin-4-yl]pyrimidin-5-yl]-2-[(3S,5R)-3,4,5-trimethylpiperazin-1-yl]phenyl]-1-methyl-6-oxo-4-(trifluoromethyl)pyridine-3-carboxamide], the Kd falls from 83 nM to 2.51 nM (33-fold).

`C[C@@H]1CN(c2cc(F)c(C3=CCN(C4CCCC4)CC3)cc2NC(=O)c2c[nH]c(=O)cc2C(F)(F)F)C[C@H](C)N1C` [Example 231, N-[5-(1-cyclopentyl-3,6-dihydro-2H-pyridin-4-yl)-4-fluoro-2-[(3R,5S)-3,4,5-trimethylpiperazin-1-yl]phenyl]-6-oxo-4-(trifluoromethyl)-1H-pyridine-3-carboxamide] and `C[C@@H]1CN(c2cc(F)c(C3=CCN(C4CCN(C)CC4)CC3)cc2NC(=O)c2c[nH]c(=O)cc2C(F)(F)F)C[C@H](C)N1C` [Example 242, N-[4-fluoro-5-[1-(1-methylpiperidin-4-yl)-3,6-dihydro-2H-pyridin-4-yl]-2-[(3R,5S)-3,4,5-trimethylpiperazin-1-yl]phenyl]-6-oxo-4-(trifluoromethyl)-1H-pyridine-3-carboxamide] are within 1.5-fold of each other in Kd: 2.51 nM for the first, 3.49 nM for the second.

`COc1ccc(C(C)N2CC=C(c3cc(NC(=O)c4c[nH]c(=O)cc4C(F)(F)F)c(N4C[C@@H](C)N(C)[C@@H](C)C4)cc3F)CC2)cc1` (stereo partly drawn) [Example 232, N-[4-fluoro-5-[1-[1-(4-methoxyphenyl)ethyl]-3,6-dihydro-2H-pyridin-4-yl]-2-[(3R,5S)-3,4,5-trimethylpiperazin-1-yl]phenyl]-6-oxo-4-(trifluoromethyl)-1H-pyridine-3-carboxamide] and `CCC(C)N1CC=C(c2cc(NC(=O)c3c[nH]c(=O)cc3C(F)(F)F)c(N3C[C@@H](C)N(C)[C@@H](C)C3)cc2F)CC1` (stereo partly drawn) [Example 233, N-[5-(1-butan-2-yl-3,6-dihydro-2H-pyridin-4-yl)-4-fluoro-2-[(3R,5S)-3,4,5-trimethylpiperazin-1-yl]phenyl]-6-oxo-4-(trifluoromethyl)-1H-pyridine-3-carboxamide] are within 1.5-fold of each other in Kd: 2.72 nM for the first, 3.89 nM for the second.

Compared with `C[C@@H]1CN(c2cc(F)c(C3=CCN(C4COC4)CC3)cc2NC(=O)c2c[nH]c(=O)cc2C(F)(F)F)C[C@H](C)N1C` [Example 235, N-[4-fluoro-5-[1-(oxetan-3-yl)-3,6-dihydro-2H-pyridin-4-yl]-2-[(3R,5S)-3,4,5-trimethylpiperazin-1-yl]phenyl]-6-oxo-4-(trifluoromethyl)-1H-pyridine-3-carboxamide], `CC(=O)N1CC=C(c2cc(NC(=O)c3c[nH]c(=O)cc3C(F)(F)F)c(N3C[C@@H](C)N(C)[C@@H](C)C3)cc2F)CC1` [Example 252, N-[5-(1-acetyl-3,6-dihydro-2H-pyridin-4-yl)-4-fluoro-2-[(3R,5S)-3,4,5-trimethylpiperazin-1-yl]phenyl]-6-oxo-4-(trifluoromethyl)-H-pyridine-3-carboxamide] is 3-fold higher in Kd: 0.943 nM for the first, 2.79 nM for the second.

Compared with `C[C@@H]1CN(c2cc(F)c(C3CCNCC3)cc2NC(=O)c2c[nH]c(=O)cc2C(F)(F)F)C[C@H](C)N1C` [Example 236, N-[4-fluoro-5-piperidin-4-yl-2-[(3R,5S)-3,4,5-trimethylpiperazin-1-yl]phenyl]-6-oxo-4-(trifluoromethyl)-1H-pyridine-3-carboxamide], `C[C@@H]1CN(c2cc(F)c(C3CCN(C(=O)C(C)(C)C)CC3)cc2NC(=O)c2c[nH]c(=O)cc2C(F)(F)F)C[C@H](C)N1C` [Example 244, N-[5-[1-(2,2-dimethylpropanoyl)piperidin-4-yl]-4-fluoro-2-[(3R,5S)-3,4,5-trimethylpiperazin-1-yl]phenyl]-6-oxo-4-(trifluoromethyl)-1H-pyridine-3-carboxamide] is 16-fold lower in Kd: 31.1 nM for the first, 1.97 nM for the second.

Compared with `CN(C)[C@@H]1CCN(c2cc(F)c(-c3ccc(O)nc3)cc2NC(=O)c2c[nH]c(=O)cc2C(F)(F)F)C1` [Example 237, N-[4-fluoro-5-(6-hydroxypyridin-3-yl)-2-[(3R)-3-(dimethylamino)pyrrolidin-1-yl]phenyl]-6-oxo-4-(trifluoromethyl)-1H-pyridine-3-carboxamide], `CN(C)[C@@H]1CCN(c2cc(F)c(-c3ccc(OCC4CC4)nc3)cc2NC(=O)c2c[nH]c(=O)cc2C(F)(F)F)C1` [Example 238, N-[5-[6-(cyclopropylmethoxy)pyridin-3-yl]-4-fluoro-2-[(3R)-3-(dimethylamino)pyrrolidin-1-yl]phenyl]-6-oxo-4-(trifluoromethyl)-1H-pyridine-3-carboxamide] is 1.8-fold lower in Kd: 9.33 nM for the first, 5.11 nM for the second.

Going from `C[C@@H]1CN(c2cc(F)c(C3=CCN(C(=O)C(C)(C)C)CC3)cc2NC(=O)c2c[nH]c(=O)cc2C(F)(F)F)C[C@H](C)N1C` [Example 243, N-[5-[1-(2,2-dimethylpropanoyl)-3,6-dihydro-2H-pyridin-4-yl]-4-fluoro-2-[(3R,5S)-3,4,5-trimethylpiperazin-1-yl]phenyl]-6-oxo-4-(trifluoromethyl)-1H-pyridine-3-carboxamide] to `CCOC(=O)N1CC=C(c2cc(NC(=O)c3c[nH]c(=O)cc3C(F)(F)F)c(N3C[C@@H](C)N(C)[C@@H](C)C3)cc2F)CC1` [Example 253, ethyl 4-[2-fluoro-5-[[6-oxo-4-(trifluoromethyl)-1H-pyridine-3-carbonyl]amino]-4-[(3R,5S)-3,4,5-trimethylpiperazin-1-yl]phenyl]-3,6-dihydro-2H-pyridine-1-carboxylate], the Kd rises from 2.16 nM to 3.3 nM (1.5-fold).

First: C[C@@H]1CN(c2cc(F)c(C3=CCN(S(C)(=O)=O)C3)cc2NC(=O)c2c[nH]c(=O)cc2C(F)(F)F)C[C@H](C)N1C [Example 249, N-[4-fluoro-5-(1-methylsulfonyl-2,5-dihydropyrrol-3-yl)-2-[(3R,5S)-3,4,5-trimethylpiperazin-1-yl]phenyl]-6-oxo-4-(trifluoromethyl)-1H-pyridine-3-carboxamide]
Second: C[C@@H]1CN(c2cc(F)c(-c3ccc(OCC4CC4)nc3)cc2NC(=O)c2ccc(F)cc2Cl)C[C@H](C)N1C [Example 251, 2-chloro-N-[5-[6-(cyclopropylmethoxy)pyridin-3-yl]-4-fluoro-2-[(3R,5S)-3,4,5-trimethylpiperazin-1-yl]phenyl]-4-fluorobenzamide]
The Kd of the first is 23-fold lower: 0.665 nM for the first, 15.6 nM for the second. The first binds more tightly here.

Work on `C[C@@H]1CN(c2cc(F)c(-c3ccc(OCC4CC4)nc3)cc2NC(=O)c2cc(Cl)cc(Cl)c2)C[C@H](C)N1C` [Example 250, 3,5-dichloro-N-[5-[6-(cyclopropylmethoxy)pyridin-3-yl]-4-fluoro-2-[(3R,5S)-3,4,5-trimethylpiperazin-1-yl]phenyl]benzamide] yielded a Kd of 76.9 nM.
